Measurements taken from patent US6740673B2, “Quarternary ammonium compounds” (UCB Farchim SA, priority 1998, dated 2004).

System: cough responses induced by citric acid (1M) aerosol in conscious guinea-pigs
Assay: Antitussive activity against citric acid aerosol-induced cough in conscious guinea-pigs
Type: in vivo, guinea-pig (male albino Dunkin-Hartley)
Details: aerosol pre-treatment at 10.0 mg/ml immediately before citric acid (1M) exposure; for inhibition of cough responses compared with vehicle: vs vehicle (distilled water), 15 minute observation period
Text: The following method was one of the general methods available to determine the antitussive activity of the compounds of the present invention.
Male albino Dunkin-Hartley strain guinea-pigs (weight 300-400 g) were supplied by Harlan UK Ltd., Bicester, Oxon, UK.
The method used was modified from that described by Adcock J. J., Schneider C. and Smith T. W., “Effects of Morphine and a Novel Opioid Pentapeptide BW443C, on Cough, Nociception and Ventilation in the Unanaesthetized Guinea-pig”, Br. J. Pharmacol., 93, 93-100 (1988). Individual conscious guinea-pigs were placed unrestrained into a sealed purpose built perspex exposure chamber (3,000 cm^3 volume) and allowed to acclimatize prior to aerosol administration.
Cylinder air was introduced into the exposure chamber at a flow rate of 1 liter/min, maintained by a needle valve and monitored by a rotameter. From the rotameter the air passed through the cup of an ultrasonic nebulizer (DeVilbis UltraNeb 2000) which was used to generate aerosols of drug or citric acid at 0.15 ml/min. A Fleisch pneumotachograph, connected to a differential pressure transducer (Grass model PT5) was attached to the outflow from the exposure chamber and provided a measurement of airflow from the chamber. […]
Cough responses were induced by exposure to an aerosol of citric acid (1M) for 10 minutes. Animals were continuously monitored by trained observer, and the number of coughs were counted during a 15 minute period from commencement of the citric acid aerosol administration. […]
The three types of response were differentiated primarily by sound and visual observation. […] Data recorded for individual guinea-pigs on the Poh-Ne-Mah system was stored on an optical disk. Each cough was marked on the Grass polygraph paper trace, and from these record numbers, frequency and time of onset of coughs were determined. […]
Quantities of drugs were weighed out and dissolved in a vehicle. […] The sequence of pre-treatment administration was determined according to a 4×4 Latin Square design. […]

SMILES | prolongation of mean latency of cough onset (time to first recorded cough) [fold] | inhibition of cough responses compared with vehicle [%]
CC[N+](CC)(CC)CC(=O)N1CCc2ccccc21 [Compound 3, N-[(1-Indolinyl)carbonylmethyl]triethylammonium chloride] | 2.5 | 36
C[N+](C)(CC(=O)Nc1ccccc1)CC(=O)N1CCc2ccccc21.[Cl-] [Compound 2, N-[(1-Indolinyl)carbonylmethyl]-N-(phenylcarbamoylmethyl) dimethylammonium chloride] | – | 56
